Legend:
[1] = tested on: Mus musculus; test: Toxicity in Swiss Webster mouse assessed as granulocyte count at 3 mg/kg, ip daily for 7 days measured after 7 days; type: organism-based; design: dose 3 mg/kg, route intraperitoneal; conditions: in vivo, 168 h
[2] = biological target: MAP kinase-activated protein kinase 2 (Homo sapiens) (UniProt P49137); test: Inhibition of MAPKAPK2 at 5 uM
[3] = tested on: Mus musculus; test: Toxicity in Swiss Webster mouse assessed as hemoglobin level at 50 mg/kg, ip daily for 7 days measured after 7 days; type: organism-based; design: dose 50 mg/kg, route intraperitoneal; conditions: in vivo, 168 h
[4] = tested on: Mus musculus; test: Toxicity in Swiss-Webster mouse at 100 mg/kg, ip daily for 5 days; type: organism-based; design: dose 100 mg/kg, route intraperitoneal; conditions: in vivo, 120 h
[5] = biological target: Mitogen-activated protein kinase 1 (Homo sapiens) (UniProt P28482); test: Inhibition of Erk2 at 5 uM
[6] = tested on: Mus musculus; test: Toxicity in Swiss Webster mouse assessed as albumin level at 50 mg/kg, ip daily for 7 days measured after 7 days; type: organism-based; design: dose 50 mg/kg, route intraperitoneal; conditions: in vivo, 168 h
[7] = biological target: RAC-alpha serine/threonine-protein kinase (Homo sapiens) (UniProt P31749); test: Inhibition of AKT1 at 5 uM
[8] = biological target: Mitogen-activated protein kinase 9 (Homo sapiens) (UniProt P45984); test: Inhibition of JNK2 at 5 uM
[9] = tested on: Mus musculus; test: Toxicity in Swiss Webster mouse assessed as glucose level at 10 mg/kg, ip daily for 7 days measured after 7 days; type: organism-based; design: dose 10 mg/kg, route intraperitoneal; conditions: in vivo, 168 h
[10] = biological target: Tyrosine-protein kinase BTK (Homo sapiens) (UniProt Q06187); test: Inhibition of BTK at 5 uM
[11] = biological target: Platelet-derived growth factor receptor alpha (Homo sapiens) (UniProt P16234); test: Inhibition of PDGFRalpha at 5 uM
[12] = biological target: 3-phosphoinositide-dependent protein kinase 1 (PDPK1) (Homo sapiens) (UniProt O15530); test: Inhibition of PDK1 at 5 uM
Sequence of 3-phosphoinositide-dependent protein kinase 1 (PDPK1) (Homo sapiens) (O15530 whole entry, looked up): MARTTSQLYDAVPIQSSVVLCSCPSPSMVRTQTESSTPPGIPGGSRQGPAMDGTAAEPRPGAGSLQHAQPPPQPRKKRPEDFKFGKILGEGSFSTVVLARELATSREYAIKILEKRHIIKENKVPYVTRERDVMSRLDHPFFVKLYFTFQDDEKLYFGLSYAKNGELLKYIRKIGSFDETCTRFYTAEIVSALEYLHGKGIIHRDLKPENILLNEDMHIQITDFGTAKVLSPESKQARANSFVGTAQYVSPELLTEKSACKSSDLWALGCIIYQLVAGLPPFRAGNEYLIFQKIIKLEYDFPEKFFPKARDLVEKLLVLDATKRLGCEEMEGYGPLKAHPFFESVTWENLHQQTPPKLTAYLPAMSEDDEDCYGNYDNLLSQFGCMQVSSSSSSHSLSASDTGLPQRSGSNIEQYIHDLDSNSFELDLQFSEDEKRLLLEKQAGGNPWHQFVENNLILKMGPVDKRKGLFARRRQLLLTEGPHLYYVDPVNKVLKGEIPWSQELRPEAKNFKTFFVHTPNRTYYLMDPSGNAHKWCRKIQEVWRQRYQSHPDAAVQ

Sequence of MAP kinase-activated protein kinase 2 (Homo sapiens) (P49137 whole entry, looked up): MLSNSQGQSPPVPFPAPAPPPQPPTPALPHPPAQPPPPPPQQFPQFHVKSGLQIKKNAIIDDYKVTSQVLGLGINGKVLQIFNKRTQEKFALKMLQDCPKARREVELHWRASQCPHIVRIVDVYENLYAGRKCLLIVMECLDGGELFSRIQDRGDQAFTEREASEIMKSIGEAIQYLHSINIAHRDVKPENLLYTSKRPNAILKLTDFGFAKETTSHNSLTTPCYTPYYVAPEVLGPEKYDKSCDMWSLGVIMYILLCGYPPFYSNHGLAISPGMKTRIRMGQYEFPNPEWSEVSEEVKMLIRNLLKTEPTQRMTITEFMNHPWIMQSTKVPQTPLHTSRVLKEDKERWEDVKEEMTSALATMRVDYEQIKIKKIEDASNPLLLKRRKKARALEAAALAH
Sequence of Tyrosine-protein kinase BTK (Homo sapiens) (Q06187 whole entry): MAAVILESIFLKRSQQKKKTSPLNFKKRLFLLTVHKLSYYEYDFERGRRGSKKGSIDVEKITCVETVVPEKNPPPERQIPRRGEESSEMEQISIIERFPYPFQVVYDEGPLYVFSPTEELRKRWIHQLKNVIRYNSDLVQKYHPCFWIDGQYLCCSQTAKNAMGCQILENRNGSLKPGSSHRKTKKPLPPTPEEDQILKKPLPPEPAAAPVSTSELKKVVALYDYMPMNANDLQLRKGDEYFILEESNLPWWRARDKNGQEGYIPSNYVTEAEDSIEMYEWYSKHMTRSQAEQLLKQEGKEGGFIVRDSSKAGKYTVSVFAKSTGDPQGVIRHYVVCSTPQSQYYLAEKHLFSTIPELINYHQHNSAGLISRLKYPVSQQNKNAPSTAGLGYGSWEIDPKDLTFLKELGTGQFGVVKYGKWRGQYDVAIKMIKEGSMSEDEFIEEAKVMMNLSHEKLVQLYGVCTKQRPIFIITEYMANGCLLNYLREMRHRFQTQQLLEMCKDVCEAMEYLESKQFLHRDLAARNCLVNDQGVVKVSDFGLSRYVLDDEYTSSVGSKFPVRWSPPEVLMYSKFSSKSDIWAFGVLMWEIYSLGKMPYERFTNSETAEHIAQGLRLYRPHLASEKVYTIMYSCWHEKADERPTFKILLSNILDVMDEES
Sequence of Mitogen-activated protein kinase 1 (Homo sapiens) (P28482 whole entry): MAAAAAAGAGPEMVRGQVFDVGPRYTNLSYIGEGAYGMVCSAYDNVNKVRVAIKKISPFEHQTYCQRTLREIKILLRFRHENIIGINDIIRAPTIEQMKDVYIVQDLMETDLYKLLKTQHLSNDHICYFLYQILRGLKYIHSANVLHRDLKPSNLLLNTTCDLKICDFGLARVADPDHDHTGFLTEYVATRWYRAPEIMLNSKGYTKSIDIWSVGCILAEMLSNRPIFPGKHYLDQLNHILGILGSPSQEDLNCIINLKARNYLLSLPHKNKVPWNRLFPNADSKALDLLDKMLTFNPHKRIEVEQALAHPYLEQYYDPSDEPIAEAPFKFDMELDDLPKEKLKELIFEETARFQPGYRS
Sequence of Platelet-derived growth factor receptor alpha (Homo sapiens) (P16234 whole entry): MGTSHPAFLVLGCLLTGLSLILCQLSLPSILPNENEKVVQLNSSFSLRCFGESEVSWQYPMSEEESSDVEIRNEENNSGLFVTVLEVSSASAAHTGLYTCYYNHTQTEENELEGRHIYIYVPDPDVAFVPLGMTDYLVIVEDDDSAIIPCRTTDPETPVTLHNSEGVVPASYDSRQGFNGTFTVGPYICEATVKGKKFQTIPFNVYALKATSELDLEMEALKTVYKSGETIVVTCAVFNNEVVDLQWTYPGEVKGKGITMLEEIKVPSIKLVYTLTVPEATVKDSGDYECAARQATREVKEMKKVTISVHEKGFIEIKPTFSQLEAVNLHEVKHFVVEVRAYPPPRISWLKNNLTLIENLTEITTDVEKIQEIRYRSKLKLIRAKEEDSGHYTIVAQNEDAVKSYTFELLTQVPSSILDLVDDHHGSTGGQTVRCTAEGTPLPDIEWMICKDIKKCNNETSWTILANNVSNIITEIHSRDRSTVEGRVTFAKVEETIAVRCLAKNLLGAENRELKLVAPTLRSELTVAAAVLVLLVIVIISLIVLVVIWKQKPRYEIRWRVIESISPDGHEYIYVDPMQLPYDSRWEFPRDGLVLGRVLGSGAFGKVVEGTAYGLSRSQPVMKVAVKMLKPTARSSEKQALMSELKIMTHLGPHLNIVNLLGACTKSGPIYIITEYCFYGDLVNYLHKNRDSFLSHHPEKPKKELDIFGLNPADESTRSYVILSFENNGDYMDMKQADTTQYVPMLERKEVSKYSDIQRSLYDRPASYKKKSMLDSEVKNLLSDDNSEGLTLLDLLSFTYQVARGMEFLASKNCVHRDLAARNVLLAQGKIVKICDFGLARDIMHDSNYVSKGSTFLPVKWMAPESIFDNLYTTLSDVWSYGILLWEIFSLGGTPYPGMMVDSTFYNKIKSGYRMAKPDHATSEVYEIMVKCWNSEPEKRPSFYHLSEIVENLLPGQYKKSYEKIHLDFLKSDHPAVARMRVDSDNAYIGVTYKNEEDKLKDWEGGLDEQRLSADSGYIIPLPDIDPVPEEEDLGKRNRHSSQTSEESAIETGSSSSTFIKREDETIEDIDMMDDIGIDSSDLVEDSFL
Sequence of Mitogen-activated protein kinase 9 (Homo sapiens) (P45984 whole entry, looked up): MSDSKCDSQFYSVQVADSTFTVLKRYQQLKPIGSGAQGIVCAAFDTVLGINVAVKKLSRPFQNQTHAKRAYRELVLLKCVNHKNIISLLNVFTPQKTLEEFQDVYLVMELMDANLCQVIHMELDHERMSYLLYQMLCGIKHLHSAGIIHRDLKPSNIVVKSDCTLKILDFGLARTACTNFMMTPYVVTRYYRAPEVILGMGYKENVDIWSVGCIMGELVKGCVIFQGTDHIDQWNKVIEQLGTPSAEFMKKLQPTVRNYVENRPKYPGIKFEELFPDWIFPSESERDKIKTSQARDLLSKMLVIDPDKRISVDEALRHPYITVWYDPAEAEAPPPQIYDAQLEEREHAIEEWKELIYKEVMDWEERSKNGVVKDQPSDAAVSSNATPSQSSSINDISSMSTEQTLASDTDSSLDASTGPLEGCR
Sequence of RAC-alpha serine/threonine-protein kinase (Homo sapiens) (P31749 whole entry): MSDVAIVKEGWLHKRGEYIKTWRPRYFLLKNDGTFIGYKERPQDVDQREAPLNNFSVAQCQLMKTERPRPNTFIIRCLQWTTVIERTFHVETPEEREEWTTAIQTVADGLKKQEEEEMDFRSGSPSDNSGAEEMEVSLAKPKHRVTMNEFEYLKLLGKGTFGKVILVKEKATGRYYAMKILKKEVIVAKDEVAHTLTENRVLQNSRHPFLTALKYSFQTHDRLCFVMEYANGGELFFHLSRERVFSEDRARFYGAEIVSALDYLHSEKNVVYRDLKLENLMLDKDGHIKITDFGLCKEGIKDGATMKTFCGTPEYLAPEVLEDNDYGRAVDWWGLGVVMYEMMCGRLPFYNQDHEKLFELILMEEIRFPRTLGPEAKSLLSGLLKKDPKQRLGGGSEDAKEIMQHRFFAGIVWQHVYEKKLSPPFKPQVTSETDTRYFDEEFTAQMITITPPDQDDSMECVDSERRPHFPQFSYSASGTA

## CCCOc1ccc(/C=C2\SC(=O)NC2=O)cc1
[1]
  Activity: 0.01 ×10⁹ /L
[2]
  inhibition: 5%
[3]
  Activity: 12.2 g/dL
[4]
  Activity: Toxic
[5]
  inhibition: -1%
[6]
  Activity: 2.6 g/dL
[7]
  inhibition: 6%
[8]
  inhibition: 14%
[9]
  Activity: 87 mg/dL
[10]
  inhibition: 7%
[11]
  inhibition: 6%
[12]
  inhibition: 1%

From ChEMBL document CHEMBL1139352, “Synthesis and evaluation of novel inhibitors of Pim-1 and Pim-2 protein kinases” (J Med Chem, 2009)
